In patent EP2077855B1, “THERAPEUTIC USE OF GBA2” (Yildiz, Dr. med., Yildiz, priority 2006, dated 2008):

Tests used:
[1] = test system: bile acid β-glucosidase activity of GBA2; assay: Bile acid β-glucosidase activity, liver microsomal enzyme from wild type mouse; type: biochemical
[2] = biological target: T1, bile acid β-glucosidase activity of GBA2 (Homo sapiens, UniProt Q9HCG7); assay: Bile acid β-glucosidase activity, human enzyme expressed in COS-7-cells; type: biochemical; settings: read-out: β-Glucosidase activity % of control
T1 construct: expressed in transfected cells; host or cells: COS-7
T1 sequence (Q9HCG7 1-927): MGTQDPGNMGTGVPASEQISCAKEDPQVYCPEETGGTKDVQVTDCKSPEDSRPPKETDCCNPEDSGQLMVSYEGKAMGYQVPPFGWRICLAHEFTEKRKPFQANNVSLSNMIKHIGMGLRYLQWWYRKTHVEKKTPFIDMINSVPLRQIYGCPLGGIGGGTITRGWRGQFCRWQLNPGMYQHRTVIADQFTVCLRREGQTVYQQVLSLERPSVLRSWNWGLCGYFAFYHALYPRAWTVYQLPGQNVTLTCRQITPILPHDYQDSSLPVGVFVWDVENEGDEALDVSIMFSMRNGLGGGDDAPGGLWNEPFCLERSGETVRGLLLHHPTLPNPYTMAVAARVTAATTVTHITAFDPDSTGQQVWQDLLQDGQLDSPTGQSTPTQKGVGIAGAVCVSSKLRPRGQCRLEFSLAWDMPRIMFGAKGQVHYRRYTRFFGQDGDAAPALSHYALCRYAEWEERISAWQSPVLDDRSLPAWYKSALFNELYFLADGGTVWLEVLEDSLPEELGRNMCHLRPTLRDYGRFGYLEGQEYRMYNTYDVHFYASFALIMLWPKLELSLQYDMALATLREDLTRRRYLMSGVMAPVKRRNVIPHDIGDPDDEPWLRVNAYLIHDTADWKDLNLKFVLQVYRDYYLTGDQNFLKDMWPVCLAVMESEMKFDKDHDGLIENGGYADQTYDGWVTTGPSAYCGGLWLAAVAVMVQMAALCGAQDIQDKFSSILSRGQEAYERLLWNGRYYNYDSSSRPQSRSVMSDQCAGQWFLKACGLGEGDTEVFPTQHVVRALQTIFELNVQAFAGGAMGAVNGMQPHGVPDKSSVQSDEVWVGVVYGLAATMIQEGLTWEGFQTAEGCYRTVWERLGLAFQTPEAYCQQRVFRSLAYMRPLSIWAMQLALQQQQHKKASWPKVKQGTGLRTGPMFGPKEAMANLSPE

[3] = biological target: T2, bile acid glucosyltransferase activity of GBA2 (Homo sapiens, UniProt Q9HCG7); assay: Bile acid glucosyltransferase activity, human enzyme expressed in COS-7-cells; type: biochemical; settings: read-out: Transferase activity % of control
T2 construct: expressed in transfected cells; host or cells: COS-7
T2 sequence (Q9HCG7 1-927): T1 sequence (Q9HCG7 1-927)

[4] = biological target: T3, bile acid β-glucosidase activity of GBA2 (Mus musculus, UniProt Q69ZF3); assay: Bile acid β-glucosidase activity, murine enzyme expressed in COS-7-cells; type: biochemical; settings: read-out: β-Glucosidase activity % of control
T3 construct: expressed in transfected cells; host or cells: COS-7
T3 sequence (Q69ZF3 1-918): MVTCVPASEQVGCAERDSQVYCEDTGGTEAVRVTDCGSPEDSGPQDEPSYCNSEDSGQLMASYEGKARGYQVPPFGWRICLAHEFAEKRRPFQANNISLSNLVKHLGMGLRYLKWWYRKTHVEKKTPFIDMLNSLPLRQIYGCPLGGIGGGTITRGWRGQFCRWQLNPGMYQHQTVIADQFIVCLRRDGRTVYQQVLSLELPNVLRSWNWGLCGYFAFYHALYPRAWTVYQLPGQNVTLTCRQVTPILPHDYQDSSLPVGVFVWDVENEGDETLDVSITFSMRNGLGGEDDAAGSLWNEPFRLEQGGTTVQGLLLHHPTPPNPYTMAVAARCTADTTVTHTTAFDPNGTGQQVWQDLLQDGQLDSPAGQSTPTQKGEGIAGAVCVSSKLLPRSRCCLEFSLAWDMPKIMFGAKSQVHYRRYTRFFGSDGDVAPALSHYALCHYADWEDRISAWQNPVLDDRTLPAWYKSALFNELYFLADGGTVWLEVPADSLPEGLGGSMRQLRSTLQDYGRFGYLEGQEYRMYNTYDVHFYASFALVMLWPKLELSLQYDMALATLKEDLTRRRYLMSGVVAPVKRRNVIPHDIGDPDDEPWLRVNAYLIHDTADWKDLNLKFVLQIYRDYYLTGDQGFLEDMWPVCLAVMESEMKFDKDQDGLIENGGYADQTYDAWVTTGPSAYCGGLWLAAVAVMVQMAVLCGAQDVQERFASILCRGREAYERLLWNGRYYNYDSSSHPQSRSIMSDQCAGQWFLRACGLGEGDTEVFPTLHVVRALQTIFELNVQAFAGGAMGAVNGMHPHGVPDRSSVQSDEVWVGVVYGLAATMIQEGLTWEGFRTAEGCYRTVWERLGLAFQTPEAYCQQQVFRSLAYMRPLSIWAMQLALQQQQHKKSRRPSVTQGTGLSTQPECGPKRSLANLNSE

[5] = test system: liver microsomal β-glucosidase activity from GBA2 (-/-) mice; assay: Liver microsomal β-glucosidase activity from GBA2 (-/-) mice; type: biochemical; settings: liver microsomes from GBA2 (-/-) mice
[6] = biological target: T4, bile acid glucosyltransferase activity of GBA2 (Mus musculus, UniProt Q69ZF3); assay: Bile acid glucosyltransferase activity, murine enzyme expressed in COS-7-cells; type: biochemical; set-up: expressed in transfected cells; host or cells: COS-7; settings: read-out: Transferase activity % of control
T4 sequence (Q69ZF3 1-918): T3 sequence (Q69ZF3 1-918)

[7] = biological target: T4, bile acid glucosyltransferase activity of GBA2; assay: Bile acid glucosyltransferase activity, liver microsomal enzyme from wild type mouse; type: biochemical; set-up: from tissue; host or cells: mouse liver microsomes (wild type); settings: read-out: Transferase activity % of control
[8] = test system: mice; settings: administration to mice; cited from earlier work
[9] = test system: rodents; settings: administered to rodents; cited from earlier work
[10] = test system: GBA2; assay: Summary statement on the screening for GBA2 antagonists; type: biochemical; settings: summary of Example 22

With `O[C@H]1[C@H](O)[C@@H](O)[C@@H]2O[C@@H]2[C@@H]1O` (racemic) [Conduritol B epoxide, reference compound] the “β-Glucosidase activity % of control” value ([1]; 50 µM) was 46.9%, the remaining activity at 1000 µM ([2]; 1000 µM, human enzyme expressed in COS-7-cells) was 55.7% and the remaining activity at 2000 µM ([3]; 2000 µM) was 64.6%. The remaining activity at 1000 µM ([4]; 1000 µM) was 44.9%, the “β-Glucosidase activity % of control” value ([5]; 20 µM) was 58.9% and the remaining activity at 2000 µM ([6]; 2000 µM) was 48.6%. It also gave a remaining activity at 2000 µM ([7]; 2000 µM) of 60%.
In the case of `OC[C@H]1NC[C@H](O)[C@@H](O)[C@@H]1O` [1-Deoxynojirimycin], the “male infertility and globozoospermia” value [8] is listed as “causes male infertility and globozoospermia”.
For `CCCCN1C[C@H](O)[C@@H](O)[C@H](O)[C@H]1CO` [Butyl-dNM, N-butyldeoxynojirimycin], the globozoospermia [9] is listed as “causes globozoospermia”.
With `CCCCCCCCCCCCN1C[C@H](O)[C@@H](O)[C@H](O)[C@H]1CO` [Dodecyl-dNM, dodecyldeoxynojirimycin] the “β-Glucosidase activity % of control” value ([1]; 0.001 µM) was 51.9%, the remaining activity at 0.0002 µM [2] was 49.3% and the remaining activity at 0.002 µM ([3]; 0.002 µM) was 50.7%. The remaining activity at 0.0001 µM ([4]; 0.0001 µM) was 59.5%, the “β-Glucosidase activity % of control” value ([5]; 0.2 µM) was 57.8% and the “inhibitory effect on β-glucosidase and transferase activity (especially on GBA2)” value [10] was “considerable inhibitory effect”. For the same compound, the remaining activity at 0.001 µM ([6]; 0.001 µM) was 47.3% and the remaining activity at 0.0006 µM ([7]; 0.0006 µM) was 49.4%.
